Experiments:
[1] = target: T1, Sodium channel protein type 4 subunit alpha (Homo sapiens, UniProt P35499); assay: Inhibition of human Nav1.4 expressed in HEK293 cells by electrophysiology assay; assay type: cell-based
Rattus norvegicus [2] = assay: Analgesic activity in it dosed rat model of pain by hot plate test; assay type: functional
Rattus norvegicus [3] = assay: Analgesic activity in it dosed rat model of pain by tail flick test; assay type: functional
Homo sapiens [4] = organism: Homo sapiens; assay: Selectivity index, ratio of IC50 for inhibition of human Nav1.6 expressed in HEK293 cells by electrophysiology assay to IC50 for inhibition of human Nav1.7 expressed in HEK293 cells by electrophysiology assay; assay type: cell-based
[5] = target: T2, Sodium channel protein type 1 subunit alpha (Homo sapiens, UniProt P35498); assay: Inhibition of human Nav1.1 expressed in HEK293 cells by electrophysiology assay; assay type: cell-based
Homo sapiens [6] = organism: Homo sapiens; assay: Selectivity index, ratio of IC50 for inhibition of human Nav1.2 expressed in HEK293 cells by electrophysiology assay to IC50 for inhibition of human Nav1.7 expressed in HEK293 cells by electrophysiology assay; assay type: cell-based
[7] = target: Sodium channel protein type 9 subunit alpha (Homo sapiens, UniProt Q15858); assay: Inhibition of human Nav1.7 expressed in HEK293 cells by electrophysiology assay; assay type: cell-based
Rattus norvegicus [8] = assay: Analgesic activity in po dosed rat model of pain by Hargreaves test; assay type: functional
[9] = target: T3, Sodium channel protein type 2 subunit alpha (Homo sapiens, UniProt Q99250); assay: Inhibition of human Nav1.2 expressed in HEK293 cells by electrophysiology assay; assay type: cell-based
Rattus norvegicus [10] = assay: Analgesic activity in it dosed rat model of formalin-induced pain; assay type: functional
Homo sapiens [11] = organism: Homo sapiens; assay: Selectivity index, ratio of IC50 for inhibition of human Nav1.1 expressed in HEK293 cells by electrophysiology assay to IC50 for inhibition of human Nav1.7 expressed in HEK293 cells by electrophysiology assay; assay type: cell-based
Homo sapiens [12] = organism: Homo sapiens; assay: Selectivity index, ratio of IC50 for inhibition of human Nav1.4 expressed in HEK293 cells by electrophysiology assay to IC50 for inhibition of human Nav1.7 expressed in HEK293 cells by electrophysiology assay; assay type: cell-based
[13] = target: T4, Sodium channel protein type 5 subunit alpha (Homo sapiens, UniProt Q14524); assay: Inhibition of human Nav1.5 expressed in HEK293 cells by electrophysiology assay; assay type: cell-based
Homo sapiens [14] = organism: Homo sapiens; assay: Selectivity index, ratio of IC50 for inhibition of human Nav1.5 expressed in HEK293 cells by electrophysiology assay to IC50 for inhibition of human Nav1.7 expressed in HEK293 cells by electrophysiology assay; assay type: cell-based
[15] = target: T5, Sodium channel protein type 8 subunit alpha (Homo sapiens, UniProt Q9UQD0); assay: Inhibition of human Nav1.6 expressed in HEK293 cells by electrophysiology assay; assay type: cell-based
[16] = Ratio of unbound plasma concentration in mouse model of inherited erythromelalgia to Kd for binding affinity to recombinant human Nav1.7 by radioligand binding assay; assay type: ADME; details: in vivo
Homo sapiens [17] = organism: Homo sapiens; assay: Selectivity ratio of Kd for binding affinity to human recombinant Nav1.6 by radioligand binding assay to Kd for binding affinity to human recombinant Nav1.7 by radioligand binding assay
[18] = target: Sodium channel protein type 10 subunit alpha (Mus musculus, UniProt Q6QIY3); assay: Binding affinity to mouse Nav1.8 […] by radioligand binding assay
Homo sapiens [19] = organism: Homo sapiens; assay: Selectivity ratio of Kd for binding affinity to human recombinant Nav1.3 by radioligand binding assay to Kd for binding affinity to human recombinant Nav1.7 by radioligand binding assay
[20] = Ratio of plasma concentration in mouse model of CFA-induced pain at 30 mg/kg, po during Hargreaves test to IC50 for inhibition of mouse Nav1.7 expressed in HEK293 cells by electrophysiology assay; assay type: organism-based; details: in vivo
[21] = target: T2, Sodium channel protein type 1 subunit alpha; assay: Binding affinity to human recombinant Nav1.1 by radioligand binding assay
[22] = target: T1, Sodium channel protein type 4 subunit alpha; assay: Binding affinity to human recombinant Nav1.4 by radioligand binding assay
[23] = target: T5, Sodium channel protein type 8 subunit alpha; assay: Binding affinity to human recombinant Nav1.6 by radioligand binding assay
Homo sapiens [24] = organism: Homo sapiens; assay: Selectivity ratio of Kd for binding affinity to human recombinant Nav1.2 by radioligand binding assay to Kd for binding affinity to human recombinant Nav1.7 by radioligand binding assay
[25] = Ratio of plasma concentration in mouse model of pain at 30 mg/kg, po during hot plate test to IC50 for inhibition of mouse Nav1.7 expressed in HEK293 cells by electrophysiology assay; assay type: organism-based; details: in vivo
Homo sapiens [26] = organism: Homo sapiens; assay: Selectivity ratio of Kd for binding affinity to human recombinant Nav1.4 by radioligand binding assay to Kd for binding affinity to human recombinant Nav1.7 by radioligand binding assay
[27] = Plasma concentration in mouse model of pain at 30 mg/kg, po during tail immersion test; assay type: ADME, organism-based; details: in vivo
[28] = target: T4, Sodium channel protein type 5 subunit alpha; assay: Binding affinity to human recombinant Nav1.5 by radioligand binding assay
[29] = Ratio of unbound plasma concentration in mouse model of formalin-induced pain to Kd for binding affinity to mouse Nav1.7 by radioligand binding assay; assay type: ADME; details: in vivo
[30] = target: Sodium channel protein type 3 subunit alpha (Homo sapiens, UniProt Q9NY46); assay: Binding affinity to human recombinant Nav1.3 by radioligand binding assay
[31] = Ratio of unbound plasma concentration in mouse model of CFA-induced cold allodynia to Kd for binding affinity to mouse Nav1.7 by radioligand binding assay; assay type: ADME; details: in vivo
Homo sapiens [32] = organism: Homo sapiens; assay: Selectivity ratio of Kd for binding affinity to human recombinant Nav1.1 by radioligand binding assay to Kd for binding affinity to human recombinant Nav1.7 by radioligand binding assay
[33] = Ratio of unbound plasma concentration in mouse model of STZ-induced pain measured to Kd for binding affinity to mouse Nav1.7 by radioligand binding assay; assay type: ADME; details: in vivo
[34] = Unbound fraction in mouse plasma; assay type: ADME, cell-free
[35] = target: T3, Sodium channel protein type 2 subunit alpha; assay: Binding affinity to human recombinant Nav1.2 by radioligand binding assay
[36] = Plasma concentration in mouse model of pain at 30 mg/kg, po during hot plate test; assay type: ADME, organism-based; details: in vivo
[37] = Plasma concentration in mouse model of CFA-induced pain at 30 mg/kg, po during Hargreaves test; assay type: ADME, organism-based; details: in vivo
[38] = Ratio of plasma concentration in mouse model of pain at 30 mg/kg, po during tail immersion test to IC50 for inhibition of mouse Nav1.7 expressed in HEK293 cells by electrophysiology assay; assay type: organism-based; details: in vivo
[39] = target: Sodium channel protein type 9 subunit alpha (Mus musculus, UniProt Q62205); assay: Binding affinity to mouse Nav1.7 by radioligand binding assay
Homo sapiens [40] = organism: Homo sapiens; assay: Selectivity ratio of Kd for binding affinity to human recombinant Nav1.5 by radioligand binding assay to Kd for binding affinity to human recombinant Nav1.7 by radioligand binding assay

T1 sequence (P35499 whole entry): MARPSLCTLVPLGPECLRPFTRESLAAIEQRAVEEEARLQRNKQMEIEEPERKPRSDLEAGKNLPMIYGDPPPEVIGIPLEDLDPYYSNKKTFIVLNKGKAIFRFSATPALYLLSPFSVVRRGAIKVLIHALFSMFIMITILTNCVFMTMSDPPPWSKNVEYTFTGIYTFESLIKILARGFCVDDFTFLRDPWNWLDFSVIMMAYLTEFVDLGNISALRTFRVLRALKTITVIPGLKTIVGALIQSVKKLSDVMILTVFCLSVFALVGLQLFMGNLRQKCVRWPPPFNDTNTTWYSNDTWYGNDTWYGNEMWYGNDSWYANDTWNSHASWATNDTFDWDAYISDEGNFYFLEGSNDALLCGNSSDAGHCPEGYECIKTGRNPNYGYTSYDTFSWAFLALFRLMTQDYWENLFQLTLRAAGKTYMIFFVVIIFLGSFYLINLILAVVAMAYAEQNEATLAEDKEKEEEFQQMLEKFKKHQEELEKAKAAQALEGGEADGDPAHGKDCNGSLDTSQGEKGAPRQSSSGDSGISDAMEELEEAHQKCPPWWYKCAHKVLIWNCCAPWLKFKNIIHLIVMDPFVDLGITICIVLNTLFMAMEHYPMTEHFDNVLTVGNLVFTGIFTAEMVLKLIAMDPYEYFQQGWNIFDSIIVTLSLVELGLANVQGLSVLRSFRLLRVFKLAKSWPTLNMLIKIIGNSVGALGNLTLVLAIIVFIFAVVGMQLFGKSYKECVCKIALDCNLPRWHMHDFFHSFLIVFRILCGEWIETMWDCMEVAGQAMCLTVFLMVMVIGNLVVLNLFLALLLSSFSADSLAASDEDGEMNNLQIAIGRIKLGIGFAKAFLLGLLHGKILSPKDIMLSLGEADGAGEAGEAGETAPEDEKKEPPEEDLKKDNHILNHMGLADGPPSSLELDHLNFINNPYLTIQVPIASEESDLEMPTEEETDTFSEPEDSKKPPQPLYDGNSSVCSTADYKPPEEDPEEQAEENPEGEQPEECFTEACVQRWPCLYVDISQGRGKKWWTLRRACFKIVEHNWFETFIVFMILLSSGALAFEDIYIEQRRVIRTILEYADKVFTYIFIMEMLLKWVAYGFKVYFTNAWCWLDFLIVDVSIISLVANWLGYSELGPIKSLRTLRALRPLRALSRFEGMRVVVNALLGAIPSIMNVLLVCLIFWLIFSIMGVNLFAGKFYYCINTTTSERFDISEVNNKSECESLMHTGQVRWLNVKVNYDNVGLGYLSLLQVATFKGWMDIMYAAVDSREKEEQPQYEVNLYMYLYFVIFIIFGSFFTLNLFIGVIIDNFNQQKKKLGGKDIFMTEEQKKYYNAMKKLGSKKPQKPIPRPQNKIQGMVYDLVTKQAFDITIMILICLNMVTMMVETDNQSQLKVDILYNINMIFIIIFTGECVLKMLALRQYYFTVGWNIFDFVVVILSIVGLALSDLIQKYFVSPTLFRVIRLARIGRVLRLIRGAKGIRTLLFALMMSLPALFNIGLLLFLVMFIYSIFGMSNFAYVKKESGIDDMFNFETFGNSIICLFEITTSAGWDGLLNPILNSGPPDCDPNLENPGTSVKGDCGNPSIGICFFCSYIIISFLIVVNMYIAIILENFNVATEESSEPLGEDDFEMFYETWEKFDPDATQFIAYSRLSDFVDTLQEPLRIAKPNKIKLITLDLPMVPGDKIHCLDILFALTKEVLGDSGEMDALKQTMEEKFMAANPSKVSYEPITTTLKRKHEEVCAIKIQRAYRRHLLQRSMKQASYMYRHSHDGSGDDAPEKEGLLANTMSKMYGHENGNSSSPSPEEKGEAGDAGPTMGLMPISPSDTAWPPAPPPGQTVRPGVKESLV
T4 sequence (Q14524 whole entry): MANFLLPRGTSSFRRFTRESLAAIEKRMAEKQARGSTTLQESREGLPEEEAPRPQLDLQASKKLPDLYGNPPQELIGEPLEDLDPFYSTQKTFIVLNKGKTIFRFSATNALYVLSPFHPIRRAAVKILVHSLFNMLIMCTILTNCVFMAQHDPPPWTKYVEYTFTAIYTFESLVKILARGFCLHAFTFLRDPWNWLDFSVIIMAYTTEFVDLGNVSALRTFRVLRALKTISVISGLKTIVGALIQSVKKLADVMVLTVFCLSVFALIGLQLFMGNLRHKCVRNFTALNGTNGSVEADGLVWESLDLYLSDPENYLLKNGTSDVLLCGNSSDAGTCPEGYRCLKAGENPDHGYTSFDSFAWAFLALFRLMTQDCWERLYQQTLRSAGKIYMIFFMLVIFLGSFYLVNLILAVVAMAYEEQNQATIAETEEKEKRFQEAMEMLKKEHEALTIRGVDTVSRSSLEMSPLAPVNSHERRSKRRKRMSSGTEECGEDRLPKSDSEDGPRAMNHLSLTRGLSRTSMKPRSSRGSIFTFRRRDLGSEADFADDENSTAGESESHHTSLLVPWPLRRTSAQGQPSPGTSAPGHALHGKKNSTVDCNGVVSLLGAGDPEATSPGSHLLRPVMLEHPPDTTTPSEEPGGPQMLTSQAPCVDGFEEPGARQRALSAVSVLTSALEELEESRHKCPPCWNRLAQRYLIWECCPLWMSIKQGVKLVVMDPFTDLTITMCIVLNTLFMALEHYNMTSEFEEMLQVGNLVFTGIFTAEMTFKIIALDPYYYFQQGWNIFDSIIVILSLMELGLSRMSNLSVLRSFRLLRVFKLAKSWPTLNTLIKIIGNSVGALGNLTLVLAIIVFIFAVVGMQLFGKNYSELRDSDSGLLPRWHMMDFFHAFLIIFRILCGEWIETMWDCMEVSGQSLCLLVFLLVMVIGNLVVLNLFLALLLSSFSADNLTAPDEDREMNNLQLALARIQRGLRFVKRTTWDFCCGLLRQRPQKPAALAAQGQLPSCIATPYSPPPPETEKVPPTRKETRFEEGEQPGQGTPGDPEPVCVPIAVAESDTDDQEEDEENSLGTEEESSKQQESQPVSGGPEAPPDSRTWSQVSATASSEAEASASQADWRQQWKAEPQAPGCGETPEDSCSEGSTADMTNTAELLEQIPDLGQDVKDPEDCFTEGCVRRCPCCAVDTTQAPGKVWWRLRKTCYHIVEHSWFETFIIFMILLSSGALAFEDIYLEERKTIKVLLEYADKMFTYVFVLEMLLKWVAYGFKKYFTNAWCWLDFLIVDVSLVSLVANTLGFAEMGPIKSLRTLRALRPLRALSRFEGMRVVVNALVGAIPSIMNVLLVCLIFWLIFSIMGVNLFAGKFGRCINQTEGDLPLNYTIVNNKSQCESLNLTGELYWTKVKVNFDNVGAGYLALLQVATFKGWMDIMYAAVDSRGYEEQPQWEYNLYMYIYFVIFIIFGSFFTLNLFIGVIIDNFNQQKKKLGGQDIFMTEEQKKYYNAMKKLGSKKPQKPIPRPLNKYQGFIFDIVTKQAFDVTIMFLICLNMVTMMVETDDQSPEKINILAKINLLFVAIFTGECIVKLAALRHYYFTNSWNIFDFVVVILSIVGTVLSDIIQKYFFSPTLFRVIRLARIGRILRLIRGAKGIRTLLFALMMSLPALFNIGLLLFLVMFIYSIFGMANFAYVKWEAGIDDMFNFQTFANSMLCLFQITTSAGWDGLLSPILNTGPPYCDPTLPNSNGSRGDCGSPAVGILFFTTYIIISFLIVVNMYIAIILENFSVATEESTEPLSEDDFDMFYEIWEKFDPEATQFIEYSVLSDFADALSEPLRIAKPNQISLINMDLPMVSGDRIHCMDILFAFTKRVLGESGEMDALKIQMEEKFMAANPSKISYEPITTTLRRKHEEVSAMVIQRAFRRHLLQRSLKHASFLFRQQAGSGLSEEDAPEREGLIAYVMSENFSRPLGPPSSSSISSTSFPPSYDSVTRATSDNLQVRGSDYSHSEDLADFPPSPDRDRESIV

Question: What does the source list for `CSCC[C@@H]1NC(=O)CNC(=O)[C@H](CCC(=O)O)NC(=O)[C@@H]2CSSC[C@H](NC(=O)[C@H](Cc3ccc(O)cc3)NC(=O)[C@H](Cc3ccc(O)cc3)NC(=O)[C@@H]3CCCN3C(=O)CN)C(=O)N[C@@H](CCC(N)=O)C(=O)N[C@@H](CCCCN)C(=O)N[C@@H](Cc3c[nH]c4ccccc34)C(=O)N[C@@H](CCSC)C(=O)N[C@@H](CCC(N)=O)C(=O)N[C@@H]([C@@H](C)O)C(=O)N[C@H]3CSSC[C@H](NC(=O)[C@H](C(C)C)NC1=O)C(=O)N[C@@H](CCCNC(=N)N)C(=O)N[C@@H](CC(C)C)C(=O)N[C@@H](Cc1c[nH]c4ccccc14)C(=O)N[C@H](C(=O)N[C@@H](CCCCN)C(=O)N[C@@H](CCCCN)C(=O)N[C@@H](CCCCN)C(=O)N[C@@H](CC(C)C)C(=O)N[C@@H](CC(C)C)C(=O)O)CSSC[C@H](NC(=O)[C@H](CCCCN)NC(=O)[C@H](CCCNC(=N)N)NC(=O)[C@H](CCC(=O)O)NC(=O)[C@H](CO)NC(=O)[C@H](CC(=O)O)NC3=O)C(=O)N2`?
Answer: IC50 [1]: 5300 nM; ED (Rattus norvegicus [2]): 0.3 to 7.5 µg; ED (Rattus norvegicus [3]): 0.3 to 7.5 µg; Ratio IC50 (Homo sapiens [4]): 100; IC50 [5]: 10000 nM; Ratio IC50 (Homo sapiens [6]): 160; IC50 [7]: 10 nM; ED (Rattus norvegicus [8]): 1.4 mg; IC50 [9]: 1600 nM; ED (Rattus norvegicus [10]): 1 to 5 µg; Ratio IC50 (Homo sapiens [11]): 1000; Ratio IC50 (Homo sapiens [12]): 530; IC50 [13]: > 10000 nM; Ratio IC50 (Homo sapiens [14]): > 1000; IC50 [15]: 1000 nM

Question: With `CS(=O)(=O)NC(=O)c1cc(C2CC2)c(OCC2CCN(Cc3cc(C(F)(F)F)ccc3Cl)CC2)cc1F` as the molecule, how does the Ratio [16] read?
Answer: Its Ratio is 0.6.

Question: What about the Ratio Ki (Homo sapiens [17]) of the same molecule?
Answer: The Ratio Ki was 60.

Question: And the Kd [18]?
Answer: The Kd was 13000 nM.

Question: And the Ratio Ki (Homo sapiens [19])?
Answer: The Ratio Ki was 51.

Question: And the Ratio [20]?
Answer: Its Ratio is 15.

Question: And the Kd [21]?
Answer: Its Kd is 140 nM.

Question: What about the Kd [22] of the same molecule?
Answer: The Kd was 28 nM.

Question: What about the Kd [23] of the same molecule?
Answer: The Kd was 210 nM.

Question: And the Ratio Ki (Homo sapiens [24])?
Answer: Its Ratio Ki is 18.

Question: What about the Ratio [25] of the same molecule?
Answer: The Ratio was 10.

Question: What about the Ratio Ki (Homo sapiens [26]) of the same molecule?
Answer: The Ratio Ki was 8.

Question: What about the concentration [27] of the same molecule?
Answer: The concentration was 10.5 µM.

Question: What about the Kd [28] of the same molecule?
Answer: The Kd was 370 nM.

Question: And the Ratio [29]?
Answer: The Ratio was 5.5.

Question: What about the Kd [30] of the same molecule?
Answer: The Kd was 180 nM.

Question: What about the Ratio [31] of the same molecule?
Answer: The Ratio was 7.5.

Question: And the Ratio Ki (Homo sapiens [32])?
Answer: The Ratio Ki was 40.

Question: And the Ratio [33]?
Answer: The Ratio was 12.

Question: And the fraction unbound [34]?
Answer: Its fraction unbound is 0.002.

Question: What about the Kd [35] of the same molecule?
Answer: The Kd was 64 nM.

Question: What about the concentration [36] of the same molecule?
Answer: The concentration was 10.5 µM.

Question: And the concentration [37]?
Answer: Its concentration is 16.1 µM.

Question: What about the Ratio [38] of the same molecule?
Answer: The Ratio was 10.

Question: And the Kd [39]?
Answer: The Kd was 2.1 nM.

Question: What about the Ratio Ki (Homo sapiens [40]) of the same molecule?
Answer: Its Ratio Ki is 100.
